Assay results taken from publication PMC9200803, “Design, synthesis, and biological evaluation of tetrahydroquinolinones and tetrahydroquinolines with anticancer activity” (Scientific Reports, 2022).

Assays:
HCT-116 cells [1] = assay: MTT cell viability assay, HCT-116; assay type: cell-based, human; settings: MTT, 72 h, IC50 ± SD
Procedure: (§1) To evaluate the effects of the newly synthesized tetrahydroquinolin-2(1H)-one derivatives on cell viability, we treated human colon cancer cells HCT-116, human breast cancer cells MCF-7, and human non-small cell lung cancer cells A-549 with different concentrations of the compounds for 72 h. After incubation, the MTT (3-(4,5-dimethylthiazol-2-yl)-2,5-diphenyltetrazolium bromide) assay was performed and the cytotoxic potency of compounds (expressed in IC50) on the cells was determined in comparison to control cells treated with 1% of dimethyl sulfoxide (DMSO) (Table 1). […] We also compared the activity of 20d and 19b to the reference control drug Cisplatin, which is widely used in chemotherapy.
(§2) A-549 (CCL-185) and MCF-7 ([…]) cells were cultured in RPMI-1640 medium, while HCT-116 (CVCL-427), (hMLH1)-deficient (MMR^–) and hMLH1-proficient (MMR^+) RKO cells were cultured in McCoy’s 5A medium. The culture media were supplemented with 10% fetal bovine serum, 2 mM L-glutamine, and antibiotics (penicillin 62.6 µg/ml and streptomycin 40 µg/ml). Cultivation of cell lines was carried out at 37 °C under a humidified atmosphere containing 5% CO2, and the cultures were routinely screened for Mycoplasma contamination. A-549, MCF-7, and HCT-116 cells were obtained from American Type Culture Collection (ATCC), while RKO colon carcinoma cells were a kind gift of Dr Timothy Kinsella (Brown University, USA).
(§3) The viability of cells was determined in response to the newly synthesized compounds using the MTT (Sigma-Aldrich) assay. Briefly, cells were seeded into 96-well plates and allowed to attach overnight. Then, cells were exposed to various concentrations of compounds for 24, 48 or 72 h. Negative controls were treated with the same amount of DMSO solvent (1%). After treatment, the MTT solution (0.4 mg/ml) was added to each well and allowed to react with cells for 2–3 h at 37 °C. Next, the medium was removed, the formazan product formed was dissolved in 100 μl of DMSO, and the absorbance was determined at 540 nm using an ASYS UVM340 microplate reader (Biochrom Ltd.). The IC50 value, which represents the concentration of the compound required to inhibit cell growth by 50% compared to vehicle, was calculated using GraphPad Prism 8 software based on the curves plotting survival against dose averaged from at least three independent experiments.

A-549 cells = assay: MTT cell viability assay, A-549; assay type: cell-based, human
Procedure: as §1, §2, §3

MCF-7 cells = assay: MTT cell viability assay, MCF-7; assay type: cell-based, human; settings: Homo sapiens, MCF7, 72 h, IC50 ± SD
Procedure: as §1, §2, §3

HEK293 cells = assay: MTT cell viability assay, HEK293; assay type: cell-based, human; settings: Homo sapiens, HEK293, IC50 ± SD
HCT-116 cells [2] = assay: Colony formation (clonogenic) assay; assay type: cell-based, human; settings: HCT-116, 24 h pretreatment, 9 days culture
Procedure: A total of 500 HCT-116 cells/well was seeded into six-well plates. After attachment, cells were pretreated with DMSO (1%) or various concentrations of 20d and 19b for 24 h. Following incubation, the medium was changed, and cells were cultured for 9 days. After culturing, cells were washed with phosphate-buffered saline (PBS), fixed with 100% methanol for 30 min, and then stained with 0.5% crystal violet for 15 min. The plates were air-dried, and visible colonies were counted using ImageJ software. The percentage viability of cells was calculated in comparison to the control.

HCT-116 cells [3] = assay: Cell cycle distribution analysis by flow cytometry (PI staining); assay type: cell-based, human; settings: HCT-116, 24 to 72 h, vs vehicle
Procedure: Based on their antiproliferative activity, 20d and 19b were evaluated for their effect on cell cycle phase distribution and DNA content by flow cytometry.
HCT-116 and A-549 cells were seeded into culture plates and allowed to attach overnight. Then, cells were incubated with the investigated compounds for the indicated time points. After incubation, the harvested cells were fixed with ice-cold 75% ethanol and stored overnight at − 20 °C. Next, cells were rehydrated with PBS in ice for 15 min and washed twice in PBS. Finally, cells were stained with […] propidium iodide (PI) and […] RNase A in PBS for 30 min at room temperature. Cell cycle distribution was determined using a Guava easyCyte 8 flow cytometer (Merck Millipore) and FlowJo v10 software.

IC50 (HCT-116 cells [1]; Homo sapiens, HCT-116, 72 h): ~13 µM
IC50 (HCT-116 cells [1]): 13.5 ± 0.2 µM
IC50 (A-549 cells; Homo sapiens, A549, MTT, 72 h, IC50 ± SD): 15.7 ± 2.56 µM
IC50 (MCF-7 cells): > 50 µM
melting point: 183 to 185 °C
SMILES: COc1cc(-c2ccccc2)c2c(n1)C(OC(=O)Nc1ccc([N+](=O)[O-])cc1)CCC2 (stereo not shown) [Compound 19b, (2-methoxy-4-phenyl-5,6,7,8-tetrahydroquinolin-8-yl) N-(4-nitrophenyl)carbamate]
fold lower concentration than Cisplatin suppressing 50% of cell viability (A-549 cells; A-549): 5 fold
IC50 (HEK293 cells): > 50 µM
formation of colonies (HCT-116 cells [2]): effectively inhibited the formation of colonies in a concentration-dependent manner
increase in the number of cells in the G0/G1 phase (HCT-116 cells [3]): < 14%
number of cells in the S-phase (HCT-116 cells [3]): substantial decrease
